According to patent US20080132520A1, “COMPOSITIONS, KITS AND METHODS FOR ADMINISTERING A TITRATION SCHEDULE COMPRISING BIFEPRUNOX COMPOUNDS” (priority 2006, published 2008):

What was measured:
[1] = biological target: T1, serotonin 5-HT1A receptors (Homo sapiens, UniProt P08908); conditions: cited from earlier work
T1 sequence (P08908 1-422): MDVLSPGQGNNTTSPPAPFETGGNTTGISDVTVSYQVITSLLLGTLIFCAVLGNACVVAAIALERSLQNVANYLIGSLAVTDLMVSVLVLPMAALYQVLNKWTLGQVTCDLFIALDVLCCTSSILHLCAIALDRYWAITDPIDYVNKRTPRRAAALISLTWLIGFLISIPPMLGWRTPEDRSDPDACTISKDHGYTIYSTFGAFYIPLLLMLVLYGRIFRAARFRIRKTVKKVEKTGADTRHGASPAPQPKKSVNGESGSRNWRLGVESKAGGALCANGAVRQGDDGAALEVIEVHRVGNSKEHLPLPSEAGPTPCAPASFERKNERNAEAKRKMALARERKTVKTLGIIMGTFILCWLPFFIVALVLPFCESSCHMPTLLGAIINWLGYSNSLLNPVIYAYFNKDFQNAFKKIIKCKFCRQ

dopamine D2/3 receptors = conditions: cited from earlier work
[2] = Rapid titration study: efficacy assessments (PANSS, CGI-S, CGI-I); type: in vivo, human; conditions: short treatment period, titration to 40 mg/day plus 3-day maintenance
Protocol: This study represented a randomized, double-blinded, placebo-controlled, sequential panel, rapid titration study of the safety and tolerability of bifeprunox compounds in subjects with schizophrenia. […] Efficacy assessments (i.e., Positive and Negative Symptoms of Schizophrenia (PANSS) and Clinical Global Impression-Severity (CGI-S) were performed at screening, Day-1 and at the final assessment; Clinical Global Impressions-improvement (CGI-I was performed at the final assessment only. […] The treatment phase lasted approximately two weeks, including follow-up assessment. Subjects remained hospitalized until the post-treatment follow-up assessment was completed or until their condition had clinically stabilized.

[3] = Randomized, double-blinded, placebo-controlled, sequential panel, rapid titration study: safety and tolerability; type: in vivo, human
Protocol: This study represented a randomized, double-blinded, placebo-controlled, sequential panel, rapid titration study of the safety and tolerability of bifeprunox compounds in subjects with schizophrenia. In particular, this study assessed the safety, tolerability and efficacy after a rapid titration of bifeprunox to a therapeutic dose of 40 mg/day in schizophrenia and schizoaffective subjects. Eligible subjects were hospitalized at the start of the screening period and entered a single-blind placebo run-in period (day -7 to -1) to assure that the 7-day antipsychotic drug-free criterion was met prior to bifeprunox titration. Subjects then began rapid titration at an initial bifeprunox starting dose of 0.25 mg with a high proposed therapeutic dose of 40 mg/day. Two titration schedules were evaluated in sequential order, with the titration period lasting 6 to 7 days depending on the titration schedule (Day 1 to Day 6 or 7).
Each listed dose in the titration schedule was administered once daily (QD) followed by the next higher dose the following day. […] Only one repeat dose, however, was allowed during the entire titration period. Upon reaching the high proposed dose of 40 mg/day, the subject entered a 3-day maintenance period for this dose. Final assessments were performed on the day after the last maintenance period dose and follow-up assessments were performed 3 days after the last dose of study treatment.
Efficacy assessments (i.e., Positive and Negative Symptoms of Schizophrenia (PANSS) and Clinical Global Impression-Severity (CGI-S) were performed at screening, Day-1 and at the final assessment; Clinical Global Impressions-improvement (CGI-I was performed at the final assessment only. Safety was monitored throughout the study by assessment of physical examination, vital signs, adverse events (AEs), concomitant medications, clinical laboratory assessments, 12-lead electrocardiograms (ECGs), Simpson-Angus Scale (SAS) score and Barnes Akathisia Scale (BAS) score. The treatment phase lasted approximately two weeks, including follow-up assessment. Subjects remained hospitalized until the post-treatment follow-up assessment was completed or until their condition had clinically stabilized.
The study planned to include 20 subjects (10 subjects per panel). Twenty-seven subjects were screened and 18 were randomized (7 to bifeprunox and 1 to placebo in titration schedule 1 and 8 to bifeprunox and 2 to placebo titration schedule 2c). Ten subjects per panel were initially available as planned. Two subjects, however, dropped out of the first panel before the start of the study. As such, the study proceeded with the eighteen subjects.
Males and females between 18-55 years old meeting Diagnostic and Statistical Manual of Mental Disorders, 4th edition, Text Revised (DSM-IV TR) diagnosis of Schizophrenia disorder (295.10, 295.20, 295.30, 295.60 and 295.90) or Schizoaffevtive disorder (295.70).
Bifeprunox were tablets taken orally at a total daily dose of 0.25 mg to 40 mg in the following titration schedules:
Placebo tablets matching the bifeprunox tablets were taken orally using the same dosing regimen as the test product.

[4] = Clinical investigations on bifeprunox mesylate: tolerability; conditions: human, in vivo

Structure (SMILES)	functional activity at serotonin 5-HT1A receptors [1]	functional activity at dopamine D2/3 receptors (dopamine D2/3 receptors)	benefit over placebo in severity of symptoms of schizophrenia (PANSS total scores, CGI-S and CGI-I scores, responder rate) [2]	subjects with TEAEs leading to discontinuation of the study treatment ([3]; titration schedule 1)	subjects with at least 1 TEAE related to study treatment ([3]; titration schedule 1)	subjects with vital sign abnormalities on the same day as relevant AEs (dizziness or orthostatic hypotension) ([3]; titration schedule 1)	tolerability of daily increases to 20 to 40 mg once the 10 mg dose was reached ([3]; titration schedule 1)	subjects reporting at least one treatment emergent adverse event (TEAE) ([3]; titration schedule 1 (0.25, 1, 5, 10, 20, 40 mg QD oral over 6 days), 7 subjects on bifeprunox)	TEAEs at the 20 mg dose level ([3]; titration schedule 1, 20 mg dose level)	subjects reporting TEAEs considered to be severe ([3]; titration schedule 1, severe TEAEs at the 1, 5 and 10 dose levels)	TEAEs of anorexia, gait abnormal NOS or orthostatic hypotension ([3]; titration schedule 2c)	additional subjects requiring re-challenge of a dose level who completed titration up to 40 mg ([3]; titration schedule 2c)	subjects with TEAEs related to the study treatment ([3]; titration schedule 2c)	subjects with vital sign abnormalities same days as AEs of dizziness ([3]; titration schedule 2c)	subjects reporting at least one TEAE ([3]; titration schedule 2c (0.25, 0.5, 2, 5, 10, 20, 40 mg QD oral over 7 days), 8 subjects on bifeprunox)	tolerability of titration from 0.25 mg to 40 mg over 7 days versus over a 6-day period ([3]; titration schedule 2c versus 1)	subjects with TEAE leading to discontinuation of the study treatment ([3]; titration schedule 2c, TEAE of dizziness)	subjects reporting TEAEs considered to be severe ([3]; titration schedule 2c, severe TEAEs at the 2 mg and 5 mg dose level)	effects on BAS, SAS, ECG or clinical laboratory evaluations ([3]; titration schedules 1 and 2c)	tolerability during clinical investigations [4]
O=c1[nH]c2cccc(N3CCN(Cc4cccc(-c5ccccc5)c4)CC3)c2o1 [bifeprunox, 7-[4-([1,1′-biphenyl]-3-ylmethyl)-1-piperazinyl]-2(3H)-benzoxa-zolone]	partial agonist	partial agonist	little benefit	Three subjects	All subjects	Two subjects	well-tolerated	All subjects	No TEAEs occurred	Three subjects	no TEAEs	Two additional subjects	Six out of 8	Four subjects	All subjects	better tolerated	One subject	Three subjects	Neither titration schedule of bifeprunox appeared to have any effects	–
CS(=O)(=O)O.O=c1[nH]c2cccc(N3CCN(Cc4cccc(-c5ccccc5)c4)CC3)c2o1 [bifeprunox mesylate, 7-[4-([1,1′-biphenyl]-3-ylmethyl)-1-piperazinyl]-2(3H)-benzoxazolone monomethane-sulfonate]	–	–	–	–	–	–	–	–	–	–	–	–	–	–	–	–	–	–	–	well tolerated
